From patent US12729381B2, “Methods and compositions for inactivating interleukin-2-inducible t-cell kinase (ITK)” (priority 2020, dated 2026)
Non-standard residues stand in square brackets, D forms with d. No end group written: not given here. *: point of attachment. FITC = O=C1OC2(c3ccc(O)cc3Oc3cc(O)ccc32)c2ccc(NC(=S)*)cc21; pY = N[C@@H](Cc1ccc(OP(=O)(O)O)cc1)C(=O)O

Test system: SLP76: ITK signaling
Experiment: Western blot of signaling proteins in mouse T cells stimulated with anti-CD3 and anti-CD28
Format: cell-based
Experimental: Western blotting: For protein analysis, T cells were either nonstimulated, or stimulated with anti-CD3 and anti-CD28 for 24 hours overnight, and were lysed with freshly prepared lysis buffer (RIPA Buffer (Fisher Scientific cat #PI89900)+cOmplete Protease Inhibitor Cocktail (Sigma-Aldrich; cat #11697498001)) and centrifuged for 10 minutes at 14000 rpm at 4° C. Protein aliquots of 70 μg of protein were loaded on a 12-18% denaturing polyacrylamide gel and transferred to nitrocellulose membranes for immunoblot analysis using antibodies specific to proteins of interest.
To ensure that the peptide easily enters cells and that its cellular localization can be monitored, a C-terminal TAT peptide (GRKKRRQRRRPQ) (SEQ ID NO:3) and an N-terminal fluorescent FITC dye were incorporated, respectively, and named it SLP76pTYR peptide ([…]). SLP76pTYR peptide (FITC Dye ^132NEEEEAPVEDDADpYEPPPSNDEEA^155-TAT) (SEQ ID NO:5) and non-specific control peptide (FITC Dye-[…]-TAT) (SEQ ID NO:6) were synthesized by Genscript Inc (Piscataway, NJ). These peptides were initially dissolved in 3% ammonia water to a final concentration of 10 mg/mL and then further diluted into PBS to a final concentration of 0.1 mg/mL. Fresh splenocytes were isolated from WT mice, and T cells were generated from splenocytes as previously described (Baker et al., 2001). Briefly, T cells were isolated from splenocytes using MACS beads (Miltenyi Biotec), then cultured in complete RPMI media (3×10^6 cells/mL) and plated on anti-CD3 ([…]; Biolegend; cat #100202) and anti-CD28 ([…]; Biolegend; cat #102116) antibody-coated tissue culture plates until otherwise specified. T cells were incubated with SLP76pTYR, control peptide or vehicle alone at different concentrations ranging from 100 ng/ml to 1 mg/ml in the presence of 4 mg/ml of protamine sulfate. […] Within 60 minutes, it was observed that peptides were inside the cells. Cells were cultured for 5 minutes prior to investigating signaling changes. Cells were examined for the presence of FITC by microscopy using a Leica DMi8 microscope equipped with an infinity total internal reflection fluorescence (TIRF) and DIC modules, a Lumencor SOLA SE II light box, a 150 mW 488 (GFP) laser and filter cube, a 100x/1.47 NA objective, and an Andor iXon Life 897 EMCCD camera. FITC expression was confirmed by flow cytometry as well. Cells were lysed and used in Western blots.
ITK deficiency is known to enhance the development of regulatory T cells (Tregs) (Elmore et al., 2020, Owen et al., 2019) so the peptide inhibitor was tested to determine whether inhibition of the ITK: SLP76Y145 interactions using SLP76pTYR would induce Tregs. First, the frequency of Tregs was examined by expression of CD4^+ and FoxP3^+ (FIG. 18A). Next, total mouse T cells were stimulated with anti-CD3 (Sugie et al., 2004) in the presence of either SLP76pTYR, nonspecific peptide, or vehicle alone for 5 to 24 hours, and cells were harvested and examined for the presence of Tregs (CD4^+CD25^+FoxP3^+). […] Next, the effects of SLP76pTYR peptide on human PBMC samples from healthy human patients was investigated. T cells from these patients were stimulated with anti-CD3 (OKT3) (Karimi et al., 2005) for 5 minutes in the presence of SLP76pTYR or vehicle alone. […] No differences in stimulated or unstimulated total human AKT (FIG. 18E and FIG. 28H) was observed, providing a showing that the SLP76pTYR peptide has an impact on signaling pathways downstream of SLP76 in both mouse and human T cells. […] Next, the ability of SLP76pTYR peptide to affect the production of proinflammatory cytokines in human PBMCs was investigated. T cells from healthy human were stimulated with anti-CD3 (OKT3) and anti-CD28 in the presence of SLP76pTYR or vehicle alone, along with Brefeldin A. T cells incubated with SLP76pTYR or vehicle alone were also examined in the presence of PMA+lonomycin and Brefeldin A for 6 hours. […]

[1] = anti-CD3 and anti-CD28 for 5 minutes, vs vehicle alone

Substance: FITC Dye ^132NEEEEAPVEDDADpYEPPPSNDEEA^155-TAT ({FITC}-NEEEEAPVEDDAD[pY]EPPPSNDEEAGRKKRRQRRRPQ) [SLP76pTYR]
- off-target effects against other kinases (PI3K and AKT, mouse and human T cells (FIG. 28A-H)): minimal off-target effects against other kinases, including PI3K and AKT
- ITK phosphorylation, stimulated [1]: reduction in ITK phosphorylation
- PLCγ-1 phosphorylation, stimulated [1]: a reduction in stimulated phosphorylation PLCγ-1 was observed
- ITK phosphorylation, non-stimulated (non-stimulated cells, vs vehicle alone): A reduction in non-stimulated phosphorylation ITK was not observed
- phosphorylation of AKT (stimulated and non-stimulated, also total AKT): No differences in the phosphorylation of PI3K or AKT was observed
- phosphorylation of PI3K (stimulated and non-stimulated, also total PI3K): No differences in the phosphorylation of PI3K or AKT was observed
- non-stimulated phospho-PLCγ-1 and stimulated or non-stimulated PLCγ-1 (vs vehicle alone): no reduction with non-stimulated phospho-PLCγ-1or either stimulated or non-stimulated PLCγ-1 was observed
- total ITK, stimulated or non-stimulated (vs vehicle alone): nor was any reduction for non-stimulated total ITK or stimulated total ITK observed
